Source: patent US7488742B2, “Thrombin receptor antagonists” (Schering Corporation, priority 2000, dated 2009)

Target: T1, thrombin receptor (Homo sapiens, UniProt P25116)
T1 construct: tissue North Jersey Blood Center (East Orange, N.J.); host or cells: platelet membranes from platelet concentrates
T1 sequence (P25116 22-425): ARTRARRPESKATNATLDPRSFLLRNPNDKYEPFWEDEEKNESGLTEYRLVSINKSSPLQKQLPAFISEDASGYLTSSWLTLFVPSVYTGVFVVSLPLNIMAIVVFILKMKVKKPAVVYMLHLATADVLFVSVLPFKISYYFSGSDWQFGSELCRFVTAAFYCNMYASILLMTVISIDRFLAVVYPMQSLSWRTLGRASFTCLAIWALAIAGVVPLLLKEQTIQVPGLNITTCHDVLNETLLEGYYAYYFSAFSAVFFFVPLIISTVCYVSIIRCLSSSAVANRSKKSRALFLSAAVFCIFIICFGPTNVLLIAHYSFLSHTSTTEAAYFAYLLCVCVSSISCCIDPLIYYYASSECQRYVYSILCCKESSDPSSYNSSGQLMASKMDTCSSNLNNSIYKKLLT
Assay: High throughput thrombin receptor radioligand binding assay ([3H]haTRAP, platelet membranes)
Details: [3H]haTRAP binding to platelet membranes; read-out: thrombin receptor IC50 (concentration at which a 50% inhibition of thrombin receptor was observed)
Experimental: In Vitro Testing Procedure for Thrombin Receptor Antagonists:
The vessel was attached to the tritium line, frozen in liquid nitrogen and evacuated. […] At the completion of the reaction, the excess tritium was removed and the reacted peptide solution was diluted with DMF (0.5 ml) and filtered to remove the catalyst. The collected DMF solution of the crude peptide was diluted with water and freeze dried to remove the labile tritium. The solid peptide was redissolved in water and the freeze drying process repeated.
All steps were carried out at 4° C. under approved biohazard safety conditions. Platelets were centrifuged at 100×g for 20 minutes at 4° C. to remove red cells. The supernatants were decanted and centrifuged at 3000×g for 15 minutes to pellet platelets. […] This step was repeated two additional times. […] To complete membrane preparation, aliquots were thawed, pooled, and homogenized with 5 strokes of a Dounce homogenizer. Membranes were pelleted and washed 3 times in 10 mM triethanolamine-HCl, pH 7.4, 5 mM EDTA, and resuspended in 20-25 ml 50 mM Tris-HCl, pH 7.5, 10 mM MgCl2, 1 mM EGTA, and 1% DMSO.
High Throughput Thrombin Receptor Radioligand Binding Assay
Stock solutions (10 mM in 100% DMSO) of test compounds were further diluted in 100% DMSO. Unless otherwise indicated, 10 μl of diluted compound solutions and 90 μl of radioligand (a final concentration of 10 nM in 5% DMSO) were added to each well, and the reaction was started by the addition of 100 μl of membranes (40 μg protein/well). […] Compounds were tested at three concentrations (0.1, 1 and 10 μM).

Row | IC50 | Structure (SMILES)
1 | 1 to 100 nM | CC[C@H]1[C@H](/C=C/c2ccc(-c3ccccc3)cn2)[C@@H]2[C@@H](C)OC(=O)[C@]2(C(N)=O)C[C@@H]1C [Example 17H]
2 | 1 to 100 nM | C[C@H]1[C@H](/C=C/c2ccc(-c3ccccc3)cn2)[C@@H]2[C@@H](C)OC(=O)[C@]2(N)C[C@@H]1C [Example 20E]
3 | 1 to 100 nM | C[C@H]1[C@H](/C=C/c2ccc(-c3cccc(F)c3)cn2)[C@@H]2[C@@H](C)OC(=O)[C@]2(N)C[C@@H]1C [Example 20F]
4 | 1 to 100 nM | C[C@H]1[C@H](/C=C/c2ccc(-c3cccc(C#N)c3)cn2)[C@@H]2[C@@H](C)OC(=O)[C@]2(N)C[C@@H]1C [Example 20G]
5 | 1 to 100 nM | C[C@H]1[C@H](/C=C/c2ccc(-c3ccccc3C#N)cn2)[C@@H]2[C@@H](C)OC(=O)[C@]2(N)C[C@@H]1C [Example 20H]
